Reference: US8853233B2, “Broad-spectrum anti-cancer treatment based on iminocamptothecin derivatives” (Sigma-Tau Industrie Farmaceutiche Riunite S.p.A., priority 2007, dated 2014)

Tests used:
Set-up in all cases: species or system nude athymic mice
[1] = test system: FaDu squamous pharynx carcinoma xenograft; experiment: In vivo antitumoral activity, FaDu tumor xenograft
Experimental: (§1) Exponentially growing tumor cells were injected s.c. into nude athymic mice. The number of tumor cells was previously chosen by a growth curve. […] Animals were housed under a light-dark cycle, keeping temperature and humidity constant. Parameters of the animal rooms were assessed as follows: 22±2° C. temperature, 55±10% relative humidity, about 15-20 filtered air changes/hour and 12 hour circadian cycle of artificial light (7 a.m., 7 p.m.). At request, the environmental conditions were monitored and the data are retained in Animal Housing Archives. Drinking water was supplied ad libitum. Each mouse was offered daily a complete pellet diet (GLP 4RF21, Mucedola) throughout the study. The analytical certificates of animal food and water are retained at Sigma-Tau premises. All animals were weighed before starting the experiment and were subdivided into the different dosage groups. Each cage was identified by a paper tag indicating: cage number, group, date of tumor injection, starting date of treatment, name of the test item, dose and route of administration, date of sacrifice.
(§2) Tumor growth was followed by biweekly measurements of tumor diameters with a Vernier caliper. Tumor volume (TV, mm^3) was calculated as: [length (mm)×width (mm)^2]/2, where the width and the length are the shortest and the longest diameters of each tumor, respectively.
(§3) LTS (long term survivors) were considered mice without tumor 90 days upon the tumor injection.

[2] = test system: A253 epidermoid submaxillary salivary gland carcinoma xenograft; experiment: In vivo antitumoral activity, A253 tumor xenograft; details: q4d × 4
Experimental: as §1, §2
LTS (long term survivors) were considered mice without tumor 90 days upon the tumor injection. […]

[3] = test system: MiaPaCa2 pancreas ca. xenograft; experiment: In vivo antitumoral activity, MiaPaCa2 tumor xenograft; details: q4d × 4
Experimental: as §1, §2, §3

[4] = test system: A431 epidermoid skin ca. xenograft; experiment: In vivo antitumoral activity, A431 tumor xenograft; details: q4d × 4
Experimental: as §1, §2, §3

[5] = test system: HT1376 bladder ca. xenograft; experiment: In vivo antitumoral activity, HT1376 tumor xenograft; details: q4d × 4
Experimental: as §1, §2, §3

[6] = test system: 501Mel melanoma xenograft; experiment: In vivo antitumoral activity, 501Mel tumor xenograft; details: 501Mel xenograft, q4d × 4
Experimental: as §1, §2, §3

[7] = test system: KB squamous oral head and neck carcinoma xenograft; experiment: In vivo antitumoral activity, KB tumor xenograft; details: q4d × 4
Experimental: as §1, §2, §3

[8] = test system: MESO mesothelioma xenograft; experiment: In vivo antitumoral activity, MESO tumor xenograft; details: q4d × 4
Experimental: as §1, §2, §3

CC[C@@]1(O)C(=O)OCc2c1cc1n(c2=O)Cc2c-1nc1ccccc1c2/C=N\OCCN [ST1968, 7-(2-amino)ethoxyiminomethylcamptothecin]
CR (complete response) ([1]; 15 mg/kg i.v., q4d × 4): 8/8
LCK (log10 cell kill) ([1]; 15 mg/kg i.v., q4d × 4): >>3.9
LTS (long term survivors) ([1]; 15 mg/kg i.v., q4d × 4): 8/8
TVI % (tumor volume inhibition) ([1]; 15 mg/kg i.v., q4d × 4): 100%
CR (complete response) ([1]; 30 mg/kg i.v., q4d × 4): 8/8
LCK (log10 cell kill) ([1]; 30 mg/kg i.v., q4d × 4): >>3.9
LTS (long term survivors) ([1]; 30 mg/kg i.v., q4d × 4): 8/8
TVI % (tumor volume inhibition) ([1]; 30 mg/kg i.v., q4d × 4): 100%
CR (complete response) ([1]; 35 mg/kg i.v., q4d × 4): 7/7
LCK (log10 cell kill) ([1]; 35 mg/kg i.v., q4d × 4): >>3.9
LTS (long term survivors) ([1]; 35 mg/kg i.v., q4d × 4): 7/7
TVI % (tumor volume inhibition) ([1]; 35 mg/kg i.v., q4d × 4): 100%
CR (complete response) ([2]; 15 mg/kg i.v.): 0/8
LCK (log10 cell kill) ([2]; 15 mg/kg i.v.): 0.6
LTS (long term survivors) ([2]; 15 mg/kg i.v.): 0/8
TVI % (tumor volume inhibition) ([2]; 15 mg/kg i.v.): 84%
CR (complete response) ([2]; 30 mg/kg i.v.): 0/8
LCK (log10 cell kill) ([2]; 30 mg/kg i.v.): 1.2
LTS (long term survivors) ([2]; 30 mg/kg i.v.): 1/8
TVI % (tumor volume inhibition) ([2]; 30 mg/kg i.v.): 90%
CR (complete response) ([2]; 35 mg/kg i.v.): 0/7
LCK (log10 cell kill) ([2]; 35 mg/kg i.v.): 1.5
LTS (long term survivors) ([2]; 35 mg/kg i.v.): 2/7
TVI % (tumor volume inhibition) ([2]; 35 mg/kg i.v.): 96%
CR (complete response) ([3]; 17.5 mg/kg i.v.): 0/7
LCK (log10 cell kill) ([3]; 17.5 mg/kg i.v.): 1.23
LTS (long term survivors) ([3]; 17.5 mg/kg i.v.): 0/7
TVI % (tumor volume inhibition) ([3]; 17.5 mg/kg i.v.): 75%
CR (complete response) ([3]; 30 mg/kg i.v.): 0/8
LCK (log10 cell kill) ([3]; 30 mg/kg i.v.): 1.67
LTS (long term survivors) ([3]; 30 mg/kg i.v.): 0/8
TVI % (tumor volume inhibition) ([3]; 30 mg/kg i.v.): 89%
CR (complete response) ([4]; 30 mg/kg i.v.): 12/12
LCK (log10 cell kill) ([4]; 30 mg/kg i.v.): >>7.7
LTS (long term survivors) ([4]; 30 mg/kg i.v.): 12/12
TVI % (tumor volume inhibition) ([4]; 30 mg/kg i.v.): 100%
CR (complete response) ([5]; 30 mg/kg i.v.): 1/12
LCK (log10 cell kill) ([5]; 30 mg/kg i.v.): 0.5
LTS (long term survivors) ([5]; 30 mg/kg i.v.): 0/12
TVI % (tumor volume inhibition) ([5]; 30 mg/kg i.v.): 77%
CR (complete response) ([6]; 20 mg/kg i.v.): 0/6
LCK (log10 cell kill) ([6]; 20 mg/kg i.v.): 1.0
LTS (long term survivors) ([6]; 20 mg/kg i.v.): 0/6
TVI % (tumor volume inhibition) ([6]; 20 mg/kg i.v.): 65%
CR (complete response) ([6]; 30 mg/kg i.v.): 0/10
LCK (log10 cell kill) ([6]; 30 mg/kg i.v.): 1.4
LTS (long term survivors) ([6]; 30 mg/kg i.v.): 0/10
TVI % (tumor volume inhibition) ([6]; 30 mg/kg i.v.): 68%
CR (complete response) ([7]; 17.5 mg/kg i.v.): 4/8
LCK (log10 cell kill) ([7]; 17.5 mg/kg i.v.): 3.79
LTS (long term survivors) ([7]; 17.5 mg/kg i.v.): 4/8
TVI % (tumor volume inhibition) ([7]; 17.5 mg/kg i.v.): 99%
CR (complete response) ([7]; 35 mg/kg i.v.): 7/7
LCK (log10 cell kill) ([7]; 35 mg/kg i.v.): >>4.0
LTS (long term survivors) ([7]; 35 mg/kg i.v.): 7/7
TVI % (tumor volume inhibition) ([7]; 35 mg/kg i.v.): 100%
CR (complete response) ([8]; 30 mg/kg i.v.): 2/12
LCK (log10 cell kill) ([8]; 30 mg/kg i.v.): 1.4
LTS (long term survivors) ([8]; 30 mg/kg i.v.): 0/12
TVI % (tumor volume inhibition) ([8]; 30 mg/kg i.v.): 92%

N.N.[Cl][Pt][Cl] [cisplatin]
CR (complete response) ([1]; 4.7 mg/kg i.v., q7d × 3): 1/8
LCK (log10 cell kill) ([1]; 4.7 mg/kg i.v., q7d × 3): 1.6
LTS (long term survivors) ([1]; 4.7 mg/kg i.v., q7d × 3): 0/8
TVI % (tumor volume inhibition) ([1]; 4.7 mg/kg i.v., q7d × 3): 93%
CR (complete response) ([1]; 7 mg/kg i.v., q7d × 3): 1/8
LCK (log10 cell kill) ([1]; 7 mg/kg i.v., q7d × 3): 3.9
LTS (long term survivors) ([1]; 7 mg/kg i.v., q7d × 3): 3/8
TVI % (tumor volume inhibition) ([1]; 7 mg/kg i.v., q7d × 3): 99%

CCc1c2c(nc3ccc(OC(=O)N4CCC(N5CCCCC5)CC4)cc13)-c1cc3c(c(=O)n1C2)COC(=O)[C@]3(O)CC [irinotecan, reference compound]
CR (complete response) ([1]; 30 mg/kg i.v., q4d × 4): 8/8
LCK (log10 cell kill) ([1]; 30 mg/kg i.v., q4d × 4): >>3.9
LTS (long term survivors) ([1]; 30 mg/kg i.v., q4d × 4): 8/8
CR (complete response) ([1]; 60 mg/kg i.v., q4d × 4): 8/8
LCK (log10 cell kill) ([1]; 60 mg/kg i.v., q4d × 4): >>3.9
LTS (long term survivors) ([1]; 60 mg/kg i.v., q4d × 4): 8/8
CR (complete response) ([2]; 30 mg/kg i.v.): 0/8
LCK (log10 cell kill) ([2]; 30 mg/kg i.v.): 0.1
LTS (long term survivors) ([2]; 30 mg/kg i.v.): 0/8
CR (complete response) ([2]; 60 mg/kg i.v.): 0/8
LCK (log10 cell kill) ([2]; 60 mg/kg i.v.): 0.5
LTS (long term survivors) ([2]; 60 mg/kg i.v.): 0/8
CR (complete response) ([3]; 60 mg/kg i.v.): 0/7
LCK (log10 cell kill) ([3]; 60 mg/kg i.v.): 1.23
LTS (long term survivors) ([3]; 60 mg/kg i.v.): 0/7
CR (complete response) ([4]; 50 mg/kg i.v.): 12/12
LCK (log10 cell kill) ([4]; 50 mg/kg i.v.): 6.8
LTS (long term survivors) ([4]; 50 mg/kg i.v.): 9/12
CR (complete response) ([5]; 50 mg/kg i.v.): 0/10
LCK (log10 cell kill) ([5]; 50 mg/kg i.v.): 0.2
LTS (long term survivors) ([5]; 50 mg/kg i.v.): 0/10
CR (complete response) ([6]; 50 mg/kg i.v.): 0/10
LCK (log10 cell kill) ([6]; 50 mg/kg i.v.): 1.3
LTS (long term survivors) ([6]; 50 mg/kg i.v.): 0/10
CR (complete response) ([7]; 30 mg/kg i.v.): 0/7
LCK (log10 cell kill) ([7]; 30 mg/kg i.v.): 1.26
LTS (long term survivors) ([7]; 30 mg/kg i.v.): 0/7
CR (complete response) ([7]; 60 mg/kg i.v.): 0/8
LCK (log10 cell kill) ([7]; 60 mg/kg i.v.): 1.63
LTS (long term survivors) ([7]; 60 mg/kg i.v.): 0/8
CR (complete response) ([8]; 50 mg/kg i.v.): 0/12
LCK (log10 cell kill) ([8]; 50 mg/kg i.v.): 0.8
LTS (long term survivors) ([8]; 50 mg/kg i.v.): 0/12
